# Laboratory results: PubChem BioAssay (NCI)
#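 Protocol summary: plate cells (96-well), add compound at 5 concentrations, incubate 48 h, interpolate endpoints linearly. At the TGI there is no net growth.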
# How the values were obtained:
# Assay in all cases: NCI anticancer screen, dose series, 48 h
# [1] = tested on: MDA-MB-435
# [2] = tested on: K-562 leukemia
# [3] = tested on: OVCAR-5 ovarian
# [4] = tested on: MDA-N
# [5] = tested on: NCI-H522 lung
# [6] = tested on: SN12C renal
# [7] = tested on: SF-539 CNS
# [8] = tested on: DU-145 prostate
# [9] = tested on: IGROV1 ovarian
# [10] = tested on: HCT-116 colon
# [11] = tested on: PC-3 prostate
# [12] = tested on: CAKI-1 renal
# [13] = tested on: NCI-H460 lung
# [14] = tested on: COLO 205 colon
# [15] = tested on: HCT-15 colon
# [16] = tested on: HT29 colon
# [17] = tested on: SK-OV-3 ovarian
# [18] = tested on: T-47D breast
# [19] = tested on: RPMI-8226 leukemia
# [20] = tested on: SF-295 CNS
# [21] = tested on: HOP-92 NSCLC
# [22] = tested on: U251 CNS
# [23] = tested on: HS 578T breast
# [24] = tested on: KM12 colon
# [25] = tested on: NCI/ADR-RES ovarian
# [26] = tested on: A549 NSCLC
# [27] = tested on: 786-0 renal
# [28] = tested on: SNB-19 CNS
# [29] = tested on: SNB-75 CNS
# [30] = tested on: UO-31 renal
# [31] = tested on: SK-MEL-5 melanoma
# [32] = tested on: NCI-H23 lung
# [33] = tested on: MALME-3M melanoma
# [34] = tested on: SK-MEL-2 melanoma
# [35] = tested on: OVCAR-8 ovarian
# [36] = tested on: NCI-H226 lung
# [37] = tested on: BT-549 breast
# [38] = tested on: TK-10 renal
# [39] = tested on: SW-620 colon
# [40] = tested on: ACHN renal
# [41] = tested on: RXF 393 renal
# [42] = tested on: MCF7 breast
# [43] = tested on: EKVX NSCLC
# [44] = tested on: HL-60(TB) leukemia
# [45] = tested on: UACC-257 melanoma
# [46] = tested on: M14 melanoma
# [47] = tested on: UACC-62 melanoma
# [48] = tested on: MOLT-4 leukemia
# [49] = tested on: SF-268 CNS
# [50] = tested on: HCC-2998 colon
# [51] = tested on: CCRF-CEM leukemia
# [52] = tested on: HOP-62 NSCLC
# [53] = tested on: OVCAR-3 ovarian
# [54] = tested on: LOX IMVI melanoma
# [55] = tested on: OVCAR-4 ovarian
# [56] = tested on: A498 renal
# [57] = tested on: SR leukemia
# [58] = tested on: SK-MEL-28 melanoma
# [59] = tested on: MDA-MB-231 breast
compound,measurement,setting,value
O=[N+]([O-])c1cccc2nnccc12,TGI,[1],32.5 µM
same,TGI,[2],> 100 µM
same,TGI,[3],> 100 µM
same,TGI,[4],34.5 µM
same,TGI,[5],20.6 µM
same,TGI,[6],> 100 µM
same,TGI,[7],> 100 µM
same,TGI,[8],> 100 µM
same,TGI,[9],> 100 µM
same,TGI,[10],29.4 µM
same,TGI,[11],> 100 µM
same,TGI,[12],90.6 µM
same,TGI,[13],42.2 µM
same,TGI,[14],34.1 µM
same,TGI,[15],28.3 µM
same,TGI,[16],53.6 µM
same,TGI,[17],> 100 µM
same,TGI,[18],> 100 µM
same,TGI,[19],> 100 µM
same,TGI,[20],> 100 µM
same,TGI,[21],71.4 µM
same,TGI,[22],> 100 µM
same,TGI,[23],> 100 µM
same,TGI,[24],> 100 µM
same,TGI,[25],> 100 µM
same,TGI,[26],> 100 µM
same,TGI,[27],50.4 µM
same,TGI,[28],87.1 µM
same,TGI,[29],> 100 µM
same,TGI,[30],95.4 µM
same,TGI,[31],27 µM
same,TGI,[32],> 100 µM
same,TGI,[33],26.9 µM
same,TGI,[34],> 100 µM
same,TGI,[35],> 100 µM
same,TGI,[36],58 µM
same,TGI,[37],> 100 µM
same,TGI,[38],> 100 µM
same,TGI,[39],> 100 µM
same,TGI,[40],30 µM
same,TGI,[41],> 100 µM
same,TGI,[42],> 100 µM
same,TGI,[43],> 100 µM
same,TGI,[44],14.4 µM
same,TGI,[45],39.9 µM
same,TGI,[46],> 100 µM
same,TGI,[47],34.2 µM
same,TGI,[48],> 100 µM
same,TGI,[49],> 100 µM
CCCc1c(-c2ccccc2)[nH]c2ccccc2c1=O,TGI,[50],65.4 µM
same,TGI,[1],> 100 µM
same,TGI,[51],> 100 µM
same,TGI,[2],> 100 µM
same,TGI,[52],> 100 µM
same,TGI,[3],> 100 µM
same,TGI,[4],> 100 µM
same,TGI,[6],> 100 µM
same,TGI,[7],> 100 µM
same,TGI,[8],> 100 µM
same,TGI,[9],> 100 µM
same,TGI,[53],> 100 µM
same,TGI,[10],72.8 µM
same,TGI,[11],> 100 µM
same,TGI,[13],> 100 µM
same,TGI,[14],> 100 µM
same,TGI,[15],> 100 µM
same,TGI,[54],43.5 µM
same,TGI,[55],> 100 µM
same,TGI,[16],50.3 µM
same,TGI,[17],> 100 µM
same,TGI,[18],99.8 µM
same,TGI,[19],> 100 µM
same,TGI,[20],> 100 µM
same,TGI,[21],> 100 µM
same,TGI,[56],79 µM
same,TGI,[22],> 100 µM
same,TGI,[23],> 100 µM
same,TGI,[24],88.2 µM
same,TGI,[28],> 100 µM
same,TGI,[30],69.1 µM
same,TGI,[32],> 100 µM
same,TGI,[33],> 100 µM
same,TGI,[34],96.7 µM
same,TGI,[36],> 100 µM
same,TGI,[37],> 100 µM
same,TGI,[38],> 100 µM
same,TGI,[39],> 100 µM
same,TGI,[40],> 100 µM
same,TGI,[41],> 100 µM
same,TGI,[42],> 100 µM
same,TGI,[43],> 100 µM
same,TGI,[57],> 100 µM
same,TGI,[44],> 100 µM
same,TGI,[45],> 100 µM
same,TGI,[58],> 100 µM
same,TGI,[46],> 100 µM
same,TGI,[47],> 100 µM
same,TGI,[48],> 100 µM
same,TGI,[49],> 100 µM
same,TGI,[59],> 100 µM
